Values joined by “and” are separate entries in the source; they are usually repeats but may differ in a detail not shown here. Equal values may be shown once. Where a name gives a salt, the structure may show the parent alone.
What was measured:
schizophrenic patients = conditions: selective sigma receptor antagonists; Borison et al 1991, Gewirtz et al 1994; cited from earlier work
[1] = test system: extracellular 5-HT, dopamine and norepinephrine in the cortex; experiment: Microdialysis in awake and freely moving rats, cortex monoamines; format: in vivo, rat; conditions: for levels of dopamine in the cortex / levels of norepinephrine in the cortex / 5-HT in the cortex: 50 μmol/kg s.c., pf. cortex; for levels of dopamine in the cortex / levels of norepinephrine in the cortex: FIG. 2-4; for 5-HT in the cortex: FIGS. 2-4
Source text: The microdialysis technique (Ungerstedt, Herrera-Marschitz et al. 1982) is a well established technique for measuring extracellular levels of neurotransmitters (Ungerstedt 1991). The microdialysis technique was used to measure the effect of drugs upon the monoamine transmitters. The appended graphs (FIGS. 1-4) show the effects of one established antidepressant (citalopram) upon 5-HT in the cortex, as well as for three compounds claimed in the present invention (Examples 3, 5, and 6).
Male Sprague-Dawley rats weighing 220-320 g were used throughout the experiments. Before the experiment the animals were group housed, five animals in each cage, with free access to water and food. The animals were housed at least one week after arrival prior to surgery and use in the experiments. Each rat was used only once for microdialysis.
We use a modified version (Waters, Lofberg et al. 1994) of the I-shaped probe (Santiago and Westerink 1990). The dialysis membrane we use is the AN69 polyacrylonitrile/sodium methalylsulfonate copolymer (HOSPITAL; o.d./i.d. 310/220 μm: Gambro, Lund, Sweden). In the dorsal striatum we use probes with an exposed length of 3 mm of dialysis membrane and in the prefrontal cortex the corresponding length is 2.5 mm. The rats were operated under isoflurane inhalation anesthesia while mounted into a Kopf stereotaxic instrument. Coordinates were calculated relative to bregma; dorsal striatum AP+1, ML±2.6, DV−6.3; Pf cortex, AP+3.2, 8° ML±1.2, DV−4.0 according to (Paxinos and Watson 1986). The dialysis probe was positioned in a burr hole under stereotaxic guidance and cemented with phosphatine dental cement.
The rats were housed individually in cages for 48 h before the dialysis experiments, allowing them to recover from surgery and minimizing the risk of drug interactions with the anaesthetic during the following experiments. During this period the rats had free access to food and water. On the day of experiment the rats were connected to a micro perfusion pump via a swivel and were replaced in the cage where they could move freely within its confinements. The perfusion medium was a Ringer's solution containing in mmol/l: NaCl; 140, CaCl2; 1.2, KCl; 3.0, MgCl2; 1.0 and ascorbic acid; 0.04 according to (Moghaddam and Bunney 1989). The pump was set to a perfusion speed of 2 μl/min and 40 μl samples were collected every 20 min.
30 μl of each sample was injected into the chromatograph. On a 10-port injector (Valco CLOW), with two sample loops mounted in series (2 μl and 20 μl), each brain dialysate sample is loaded in both loops simultaneously. When the valve is switched to inject the main part of the 20 μl sample is introduced into a reverse-phase ion-pairing system for dopamine (DA), norepinephrine (NA), normetanephrine (NM), 3-methoxytyramine(3-MT) and serotonin (5-hydroxytryptamine, 5-HT) determination (large loop), while a small fraction (2 μl, from the small loop) is introduced on a reverse-phase column for the chromatography of the acidic monoamine metabolites 3,4-di-hydroxyphenylacetic acid (DOPAC), homovanillic acid (HVA) and 5-hydroxyindoleacetic acid (5-HIAA). The currents generated by the two EC detectors are converted to digital data and evaluated using Chromelion software (Dionex, Sunnyvale, Calif.) on a PC. The method sample turn over time was 4.5 min and two parallel experiments are normally analysed simultaneously on the system. After the experiment the rats were uncoupled from the perfusion pump and decapitated. Their brains were rapidly taken out and fixed in Neo-fix solution (Kebo-lab, Sweden) for subsequent inspection of probe localisation. The Animal Ethics Committee in Göteborg, Sweden approved the procedures applied in these experiments. • Moghaddam, B. and B. S. Bunney (1989). “Ionic Composition of Microdialysis Perfusing Solution Alters the Pharmacological Responsiveness and Basal Outflow of Striatal Dopamine.” J. Neurochem. 53: 652-654. • Paxinos, G. and C. Watson (1986). […]

MK-801 pre-treated rats = experiment: Locomotor activity in MK-801 pre-treated rats; conditions: ± SEM; for Locomotor activity, MK + example: MK-801 0.7 mg/kg i.p. 90 minutes before test compound 33 μmol/kg, recorded 30-60 minutes after administration
drug-naive rats = experiment: Locomotor activity in drug-naive rats; conditions: recorded for 60 minutes, ± SEM

Structure (SMILES): CN1CCC(c2cccc(C(F)(F)F)c2F)CC1 (as salt: hydrochloric acid salt)
- melting point: 260 to 261 °C

Structure (SMILES): CCCN1CCC(c2cccc(OC(F)(F)F)c2F)CC1 (as salt: hydrochloric acid salt) [Example 2, 4-[2-fluoro-3-(trifluoromethoxy)phenyl]-1-propyl-piperidine]
- melting point: 221 to 222 °C

Structure (SMILES): CCN1CCC(c2cccc(C(F)(F)F)c2F)CC1 (as salt: hydrochloric acid salt) [Example 3, 4-[2-fluoro-3-(trifluoromethyl)phenyl]-1-ethylpiperidine]
- melting point: 235 to 237 °C

Structure (SMILES): CCCN1CCC(c2cccc(F)c2F)CC1 (as salt: hydrochloric acid salt) [Example 5, 4-(2,3-difluorophenyl)-1-propylpiperidine]
- melting point: 237 to 238 °C

Structure (SMILES): CCCN1CCC(c2cccc(Cl)c2Cl)CC1 (as salt: hydrochloric acid salt) [Example 6, 4-(2,3-dichlorophenyl)-1-propylpiperidine]
- melting point: 265 to 267 °C

Structure (SMILES): CCN1CCC(c2cccc(C#N)c2F)CC1 (as salt: oxalic acid salt)
- melting point: 156 to 158 °C

Structure (SMILES): OC(CCCN1CCN(c2ncc(F)cn2)CC1)c1ccc(F)cc1 (stereo not shown) [BMY14802]
- outcome of clinical studies in schizophrenic patients (schizophrenic patients): failed

Structure (SMILES): C[C@@H]1CN(CCCn2c3ccccc3c3ccccc32)C[C@H](C)N1 [BW234U]
- outcome of clinical studies in schizophrenic patients (schizophrenic patients): failed

Structure (SMILES): CCN1CCC(c2cccc(C(F)(F)F)c2F)CC1 [Example 3, 4-[2-fluoro-3-(trifluoromethyl)phenyl]-1-ethylpiperidine]
- levels of dopamine in the cortex [1]: elevate
- levels of norepinephrine in the cortex [1]: elevate
- 5-HT in the cortex [1]: 5-HT increase in the cortex

Structure (SMILES): CCCN1CCC(c2cccc(F)c2F)CC1 [Example 5, 4-(2,3-difluorophenyl)-1-propylpiperidine]
- levels of dopamine in the cortex [1]: elevate
- levels of norepinephrine in the cortex [1]: elevate
- 5-HT in the cortex [1]: 5-HT increase in the cortex

Structure (SMILES): CCCN1CCC(c2cccc(Cl)c2Cl)CC1 [Example 6, 4-(2,3-dichlorophenyl)-1-propylpiperidine]
- levels of dopamine in the cortex [1]: elevate
- levels of norepinephrine in the cortex [1]: elevate
- 5-HT in the cortex [1]: 5-HT increase in the cortex

Structure (SMILES): C[C@]12N[C@H](Cc3ccccc31)c1ccccc12 [MK-801, reference compound]
- Locomotor activity, MK-801 (MK-801 pre-treated rats; MK-801 0.7 mg/kg i.p. alone, recorded 30-60 minutes, 0.7 mg/kg): 55810 ± 16124 counts/30 min and 30462 ± 6937 counts/30 min

Structure (SMILES): CCN1CCC(c2cccc(C(F)(F)F)c2F)CC1 [drawing 17]
- Locomotor activity (drug-naive rats; 11 μmol/kg): 10587 ± 1027 counts/60 min
- Locomotor activity (drug-naive rats; 33 μmol/kg): 6439 ± 418 counts/60 min
- Locomotor activity (drug-naive rats; 100 μmol/kg): 4866 ± 941 counts/60 min

Structure (SMILES): CCCN1CCC(c2cccc(Cl)c2Cl)CC1 [drawing 18]
- Locomotor activity (drug-naive rats; 11 μmol/kg): 7739 ± 1903 counts/60 min
- Locomotor activity (drug-naive rats; 33 μmol/kg): 7053 ± 659 counts/60 min
- Locomotor activity (drug-naive rats; 100 μmol/kg): 4272 ± 1831 counts/60 min

Structure (SMILES): CCCN1CCC(c2cccc(F)c2F)CC1 [drawing 19]
- Locomotor activity (drug-naive rats; 11 μmol/kg): 8894 ± 1039 counts/60 min
- Locomotor activity (drug-naive rats; 33 μmol/kg): 9958 ± 1835 counts/60 min
- Locomotor activity (drug-naive rats; 100 μmol/kg): 8154 ± 1388 counts/60 min

Structure (SMILES): CCCN1CCC(c2cccc(Cl)c2Cl)CC1 [drawing 28]
- Locomotor activity, MK + example (MK-801 pre-treated rats): 12943 ± 3226 (P = 0.06) counts/30 min

Structure (SMILES): CCCN1CCC(c2cccc(F)c2F)CC1 [drawing 29]
- Locomotor activity, MK + example (MK-801 pre-treated rats): 19826 ± 6949 (P = 0.09) counts/30 min

Structure (SMILES): CN1CCN2c3ncccc3Cc3ccccc3C2C1 (stereo not shown) [mirtazapine, reference compound]
- extracellular dopamine in the cortex ([1]; 10 mg/kg s.c., cortex, FIG. 5): increase
- extracellular norepinephrine in the cortex ([1]; 10 mg/kg s.c., cortex, FIG. 5): increase
